In patent US20250250251A1, “PIPERIDINYLPYRIDINYLCARBONITRILE DERIVATIVES AS INHIBITORS OF GLUTAMINYL-PEPTIDE CYCLOTRANSFERASE AND GLUTAMINYL-PEPTIDE CYCLOTRANSFERASE LIKE PROTEIN” (Boehringer Ingelheim International GmbH, priority 2024, published 2025):
pIC50: −log10 of the molar value. Where two headings read alike, the source gives them in different places.

Tests used:
QPCTL = target: T1, QPCTL (Homo sapiens, UniProt Q9NXS2); assay: Assay A: biochemical QPCTL activity assay (MALDI-TOF MS, CD47 peptide substrate); settings: Table 3, prior art compounds, read-out: Inhibition of QPCTL: IC50
T1 construct: made in house
T1 sequence (Q9NXS2 whole entry, species assumed): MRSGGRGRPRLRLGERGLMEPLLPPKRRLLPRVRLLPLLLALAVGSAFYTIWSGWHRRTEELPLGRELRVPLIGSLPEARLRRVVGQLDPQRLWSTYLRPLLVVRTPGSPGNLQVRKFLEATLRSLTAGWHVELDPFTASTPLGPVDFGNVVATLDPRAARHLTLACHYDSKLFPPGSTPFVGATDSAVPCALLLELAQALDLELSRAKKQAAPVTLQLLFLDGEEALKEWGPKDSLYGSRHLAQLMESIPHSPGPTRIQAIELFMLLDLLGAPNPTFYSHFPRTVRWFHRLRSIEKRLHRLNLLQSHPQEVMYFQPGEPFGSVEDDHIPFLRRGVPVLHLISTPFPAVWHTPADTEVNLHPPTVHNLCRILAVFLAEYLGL
Summary of the method: (§1)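 Enzyme and compound pre-incubated 10 min at 24° C in 20 mM Tris pH 7.5 with TCEP, BSA, Tween20, then 40 min with CD47 peptide (10 μM for QPCTL, 20 μM for QPCT). Pyroglutamate product/internal standard ratio by MALDI-TOF MS, normalized to controls; four-parameter logistic fit.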

QPCT = target: T2, QPCT (Homo sapiens, UniProt Q16769); assay: Assay A: biochemical QPCT activity assay (MALDI-TOF MS, CD47 peptide substrate); settings: Table 3, prior art compounds, read-out: Inhibition of QPCT: IC50
T2 construct: purchased Origine (OriGene) TP700028
T2 sequence (Q16769 29-361): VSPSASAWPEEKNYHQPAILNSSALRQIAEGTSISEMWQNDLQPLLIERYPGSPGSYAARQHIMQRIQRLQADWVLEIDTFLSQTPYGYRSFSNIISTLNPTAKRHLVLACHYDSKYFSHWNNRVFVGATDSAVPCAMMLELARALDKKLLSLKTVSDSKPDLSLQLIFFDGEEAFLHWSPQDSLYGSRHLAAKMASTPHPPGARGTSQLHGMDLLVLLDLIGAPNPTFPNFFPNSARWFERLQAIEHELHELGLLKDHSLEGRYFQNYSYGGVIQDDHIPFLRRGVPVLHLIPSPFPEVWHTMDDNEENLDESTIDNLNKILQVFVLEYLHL
Summary of the method: as §1

[1] = test system: SIRPα signalling induced by Raji cells; assay: Assay B: SIRPα signalling assay using Raji cells; format: cell-based; settings: Homo sapiens, Table 5, prior art compounds, read-out: Inhibition of SIRPα signalling induced by Raji cells: IC50
Summary of the method: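 SIRPα signalling induced by Raji cells in a PathHunter reporter line, read as β-galactosidase complementation luminescence. Detection reagent 1 added for 15 min, then reagent 2 for 60 min in the dark, both at room temperature.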

[2] = test system: SIRPα signalling induced by A549 cells; assay: Assay B: SIRPα signalling assay using A549 cells; format: cell-based; settings: Homo sapiens, Table 5, prior art compounds, read-out: Inhibition of SIRPα signalling induced by A549 cells: IC50
Summary of the method: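 Raji or A549 cells (5000/well) were each incubated with serially diluted compound for 48 h at 37 °C. Jurkat PathHunter SIRPαV1 reporter cells (15000/well) were then added for 5 h. Beta-galactosidase luminescence gave IC50 via a 4-parameter sigmoidal fit.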

[3] = Assay C: permeability in CACO-2 cells; format: in vitro ADME; settings: human, Caco-2, pH 7.2
Summary of the method: (§2)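 Caco-2 monolayers were grown 10–25 days on porous filter inserts. Compound was applied to the apical or basolateral donor side for A-B or B-A transport (3 filters), and the receiver was sampled for up to 2 h. Quantitation was by HPLC-MS/MS or scintillation; efflux ratio = B-A/A-B permeability.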

CYP3A4 mRNA = assay: Assay D: CYP induction screening assay in primary human hepatocytes; format: in vitro ADME; settings: Table 10, prior art compounds, 48 h
Summary of the method: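 Single-donor cryopreserved human hepatocytes on collagen with Matrigel overlay were exposed to test compound at […] (0.1% DMSO) for 48 h, medium renewed at 24 h. CYP3A4 mRNA quantified by QuantiGene Plex/Luminex, normalised to geometric mean of RPL32, EIF4E2, GUSB and expressed relative to solvent control.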

murine hepatocytes = assay: Assay E: stability in murine hepatocytes; format: in vitro ADME, mouse; settings: Table 13, prior art compounds, 1 μM, 5% species serum
Summary of the method: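 Cryopreserved mouse hepatocytes, typically 1 Mio cells/mL in medium with 5% species serum, were dosed at 1 μM compound (0.05% DMSO) at 37 °C and sampled over 0–6 h. Parent decline was measured by HPLC-MS/MS and CLint calculated from dose/AUC, then scaled by well-stirred liver model.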

isolated QPCTL [4] = target: T3, isolated QPCTL (Homo sapiens, UniProt Q9NXS2); settings: as disclosed in WO 2024/020517; read-out: Inhibitory activity on isolated QPCTL, IC50; cited from earlier work
T3 sequence (Q9NXS2 whole entry): as the sequence (Q9NXS2 whole entry, species assumed) above

CACO-2 cells = assay: Assay C: permeability in CACO-2 cells; format: in vitro ADME; settings: pairs with and without 4-fluoropiperidyl, CACO2 cells
Summary of the method: as §2

isolated QPCTL [5] = target: T3, isolated QPCTL; settings: as disclosed in WO 2023/205173; read-out: inhibitory activity on isolated QPCTL, IC50; cited from earlier work
[6] = pairs with and without 4-fluoropiperidyl, CACO2 cells, read-out: Efflux ratio (BA/AB)

Compound | pIC50 (QPCTL) | pIC50 (QPCT) | pIC50 [1] | pIC50 [2] | Papp A→B [3] [×10⁻⁶ cm/s] | efflux ratio ([3]; read-out: Efflux Ratio) | n-fold induction of CYP3A4 at 10 μM (CYP3A4 mRNA) [n-fold] | Mouse Hepatocyte Stability QH (murine hepatocytes) [%] | pIC50 (isolated QPCTL [4]) | CACO2 Perm. (CACO-2 cells) | efflux ratio [3, 6] | pIC50 (isolated QPCTL [5])
Cn1cc2c(-c3cccc(C#N)c3N3CCC(c4nncn4C)CC3)cncc2n1 [Compound 16, reference compound] | 8.00 | 7.62 | 6.11 | 6.40 | < 0.6 | > 21.7 | 1.5 | 61 | > 7.00 | – | – | –
COc1ccc(-c2ccnnc2)c(N2CCC(c3nncn3C)CC2)c1C#N [Compound 26, reference compound] | 9.00 | 8.70 | 6.34 | 6.68 | < 0.02 | > 135 | 1.1 | 19 | > 7.00 | – | – | –
Cn1cnnc1C1CCN(c2c(C#N)cccc2-c2ccc(F)nc2)CC1 [(1)/QP5020, reference compound] | – | – | – | 8.10 | – | – | – | 83 | – | 28.0 10^−6 cm/sec | – | –
Cn1cnnc1C1CCN(c2c(C#N)cc(F)cc2-c2cnc3nn(C(C)(C)C)c(C(F)(F)F)c3c2)CC1 | – | – | – | – | – | – | – | – | – | 17.0 10^−6 cm/sec | 5.7 | –
Cn1cnnc1C1CCN(c2c(C#N)cccc2-c2cnc3nccn3c2)CC1 [Compound 93, reference compound] | 9.00 | 8.30 | 5.86 | 6.45 | < 0.04 | > 40 | 0.8 | 26 | > 7.00 | – | – | –
Cn1cnnc1C1(F)CCN(c2c(C#N)cc(F)cc2-c2cnc3nn(C(C)(C)C)c(C(F)(F)F)c3c2)CC1 | – | – | – | – | – | – | – | – | – | 51.0 10^−6 cm/sec | 0.8 | –
Cn1cnnc1C1(F)CCN(c2c(C#N)cc(F)cc2-c2ccc(F)nc2)CC1 [Example 6 in EP 23161417.3] | – | – | – | – | – | – | – | – | – | 44.0 10^−6 cm/sec | – | –
Cn1cnnc1C1CCN(c2c(C#N)ccnc2-c2ccc(F)nc2)CC1 [Compound 133 in WO 2024/020517] | – | – | – | – | – | – | – | – | – | 4.8 10^−6 cm/sec | – | –
COc1ccc(-c2cnc3nccn3c2)c(N2CCC(c3nncn3C)CC2)c1C#N [Compound 94, reference compound] | 9.00 | 8.52 | 5.69 | 5.89 | < 1.4 | > 0.8 | <1 | 30 | > 7.00 | – | – | –
Cn1cnnc1C1CCN(c2c(C#N)cc(Cl)cc2-c2cnc3nn(C(C)(C)C)cc3c2)CC1 [Example 17 in EP 23161417.3] | – | – | – | – | – | – | – | – | – | 2.5 10^−6 cm/sec | – | –
Cn1cnnc1C1(F)CCN(c2c(C#N)cccc2-c2ccc(F)nc2)CC1 [Example 56 in EP 23161417.3] | – | – | – | – | – | – | – | – | – | 50.0 10^−6 cm/sec | – | –
Cn1cnnc1C1(F)CCN(c2c(-c3ccc(F)nc3)ccnc2C#N)CC1 [Example 10 in EP 22188580.9] | – | – | – | – | – | – | – | – | – | 11.0 10^−6 cm/sec | – | –
Cn1c(N)nnc1C1CCN(c2c(C#N)cccc2-c2ccc(F)nc2)CC1 [Compound 14, reference compound] | – | – | 8.40 | 8.40 | – | – | 1.9 | 33 | – | – | – | > 6.00
Cn1cnnc1C1CCN(c2c(C#N)cccc2-c2cnc3[nH]nc(O)c3c2)CC1 [Compound 113, reference compound] | 6.83 | 6.79 | < 5.00 | 5.37 | < 0.78 | > 5 | <1 | <12 | > 7.00 | – | – | –
Cn1cnnc1C1CCN(c2c(C#N)cccc2-c2ccnnc2)CC1 [Compound 11] | – | – | – | 7.15 | – | – | – | – | > 7.00 | 0.3 10^−6 cm/sec | – | –
